The results in this text go back to patent publication US20030138864A1, “Method for identifying an enzyme to design anti-cancer compounds” (priority 2001, published 2003).

Where a name gives a salt, the structure may show the parent alone. Read-outs that look alike come from different tables or passages of the source.

Holding throughout (format): cell-based
The subject of data set [1] is HCT116/S5: HCT116 transfected with the human microsomal dipeptidase cDNA. Briefly: Growth inhibition (cytotoxicity, WST-8) of HCT116/S5 cells expressing a high level of microsomal dipeptidase. As to the method: (§1) The activation of the compounds is mediated by microsomal dipeptidase. The inhibitory activities of the compounds is determined against growth of the cells expressing a low level of microsomal dipeptidase, those expressing a high level of microsomal dipeptidase, and granulocyte progenitors that are expanded ex vivo. The human colon cancer cell line, HCT116 (American Type Culture Collection No. CCL-247), and granulocyte progenitors are used as the cells expressing only a low level of microsomal dipeptidase. A stable transfectant, HCT116/S5, into which the human microsomal dipeptidase cDNA (herafter called MDP) connected to the CMV promoter was transfected, is used as the cells expressing a high level of microsomal dipeptidase. The dipeptidase cDNA (Satoh et al. Biotechnol. Prog. 10 (2), 134-140 (1994)) and other references) and the cloning procedures as mentioned are known in the art. HCT116, HCT116/S5, and granulocyte porogenitors are cultured in the absence and presence of the drugs. […] The IC50 values are determined and compared among HCT116, HCT116/S5, and granulocyte porogenitors. Although time duration of the exposure of the cells to the drugs varies depending on the cells and drugs, it can be 24 hr, 96 or 168 hr.
Transfection of the DNA was carried out by using TransIT-LT2 (PanVera, Madison, USA, Calatog No. MIR2320) according to the manufacturer's instruction. The resulting transfectants were cultivated in MaCoy5A medium (Sigma, St Louis, USA, Catalog No. M8403) supplemented with 10% (v/v) fetal bovine serum and 1 mg/ml of geneticin disulfate (Wako, Osaka, Japan, Catalog No. 535-24624). The cells that grew in the presence of 1 mg/ml G418 were collected and cultivated in MaCoy5A medium.
(§2) By using 96-multi well plates, approximately 2×10^3 cells per well of the HCT116 bearing pRC/CMV and HCT116S5 carrying pRC/CMV-MDP were cultured in 200 μl of McCoy5A medium supplemented with 10% FBS in the presence or absence of the indicated concentrations of the drugs at 37° C. under 5% CO2 in humidified air. The cells were exposed to drugs for 24 hr (taxol, camptothecins and their prodrugs) or 96 hr (DMDC and its compounds). When the drug exposure time to the cells was 24 hr, culture medium containing drugs were removed, and the cells were washed and suspended in the fresh medium without drugs and further cultured at 37° C. under 5% CO2 in humidified air for the indicated days. Then, 10 μl of WST-8 (Cell Counting Kit-8, Wako, Osaka, Japan, Catalog No.343-07623) were added to the cultures, and the cells were further incubated at 37° C. for 1 or 2 hr. Cell growth inhibition was calculated as IC50 values according to optical densities at 450 nm and at 655 nm. To examine the effects of drugs on granulocyte progenitors, the granulocyte progenitors, which were expanded on a monolayer of MS-5 for 7 days, were collected and washed with RPMI1640 medium. Approximately 5000 cells were suspended in 200 μl of RPMI medium supplemented with 10% FBS and 50 ng/ml of G-CSF in the presence or absence of drugs and cultured in the presence of drugs for 24 hr (taxol, camptothecins and their prodrugs) or 7 days (DMDC and its prodrug) at 37° C. under 5% CO2 in humidified air. When the exposure time of drugs to the cells was 24 hr, the drugs were removed at 24 hr after addition of drugs by washing the cells with the above medium, and the cells were further cultured for 6 days in the same medium without drugs. Therafter, 20 μl of WST-1 (Roche Diagnostics, Mannheim, Germany, Catalog No. 1644807) were added to the cultures, and the cells were further incubated at 37° C. for 6 hr. Cell growth inhibition was calculated as IC50 values according to optical densities at 450 nm and at 655 nm.
A general note: Formazan colour is commonly taken as a measure of viable cells.

Data set [2] relates to HCT116: human colon cancer cell line. Briefly: Growth inhibition (cytotoxicity, WST-8) of HCT116 cells expressing only a low level of microsomal dipeptidase. As to the method:
The activation of the compounds is mediated by microsomal dipeptidase. The inhibitory activities of the compounds is determined against growth of the cells expressing a low level of microsomal dipeptidase, those expressing a high level of microsomal dipeptidase, and granulocyte progenitors that are expanded ex vivo. […] A stable transfectant, HCT116/S5, into which the human microsomal dipeptidase cDNA (herafter called MDP) connected to the CMV promoter was transfected, is used as the cells expressing a high level of microsomal dipeptidase. […] HCT116, HCT116/S5, and granulocyte porogenitors are cultured in the absence and presence of the drugs. […] The IC50 values are determined and compared among HCT116, HCT116/S5, and granulocyte porogenitors.
Transfection of the DNA was carried out by using TransIT-LT2 (PanVera, Madison, USA, Calatog No. MIR2320) according to the manufacturer's instruction. […] The cells that grew in the presence of 1 mg/ml G418 were collected and cultivated in MaCoy5A medium.
as §2, with “Then, 10 μl of WST-8 (Cell Counting Kit-8, Wako, Osaka, Japan, Catalog No.343-07623) were added to the cultures, and the cells were further incubated at 37° C. for 1 or 2 hr. Cell growth inhibition was calculated as IC50 values according to optical densities at 450 nm and at 655 nm.” left out, “drugs.” for “drugs. Therafter, 20 μl of WST-1 (Roche Diagnostics, Mannheim, Germany, Catalog No. 1644807) were added to the cultures, and the cells were further incubated at 37° C. for 6 hr. Cell growth inhibition was calculated as IC50 values according to optical densities at 450 nm and at 655 nm.”

The test system of data set [3] is CFU-GM: human bematopoietic progenitor cells. Kind of data set: Growth inhibition (cytotoxicity, WST-1) of granulocyte progenitors expanded ex vivo (CFU-GM). On the procedure:
as §1
CD34-positive mononuclear cells derived from the human umbilical cord blood and bone marrow (Veritas Co, Tokyo, Japan, Catalog No.CB009F, ABM019F) were cultured on a confluent monolayer of MS5 (Itoh, K., et al. Reproducible establishment of hematopoietic supportive stromal cells from murine bone marrow. Exp. Hematol. 17, 145-153 (1989)). Mouse stromal cell lines in alpha MEM medium (Life Technologies, Gaithersburg, USA, Catalog No.12571-0063) supplemented with 10% (v/v) horse serum (HS) (Stem Cell Technologies, Vancouver, Canada, Catalog No. 06750), 10% (v/v) fetal bovine serum (FBS) (Stem Cell Technologies, Vancouver, Canada, Catalog No.06450), 50 ng/ml Flt3 ligand (PeproTec EC., London, UK., Catalog No. 300-19), 100 ng/ml SCF (PeproTech EC, London, UK., Catalog No. 300-07), and 50 ng/ml TPO (PeproTech EC, London, England, Catalog No. 300-18) at 37° C. under 5% CO2 in humidified air. Floating hematopoietic cells were collected and stained by monoclonal antibodies against PerCP-anti-CD34 (BD pharMingen, San Diego, USA, Catalog No.340430), PE-anti-CD13 (BD pharMingen, San Diego, USA, Catalog No. 30525X) and FlTC-anti-15(BD pharMingen, SanDiego, USA, Catalog No. PM30525X). Five microlitter of each antibody was added to a […] of cell suspension and incubated at 4° C. for 25 min. After washing with PBS containing 10% (v/v) FCS, the expression of CD antigens were detected by using FACSCalibur (Becton Dickinson, Franklin Lakes, N.J., USA) according to the FACSCalibur Traing mannual (FACStation ver1.1. Becton Dickinson, Franklin Lakes, N.J., USA.). […]

Where [4] appears, read: drug exposure time, 24 hr, then drug removed and cells cultured further, read-out: Cytotoxicity (IC50 in nM) HCT116/S5.
Setting [5] is: drug exposure time, 24 hr, then drug removed and cells cultured further, read-out: Cytotoxicity (IC50 in nM) HCT116.
Setting [6] is: drug exposure time, 24 hr, then cultured for 6 days without drugs, read-out: Cytotoxicity (IC50 in nM) CFU-GM.

Regarding `CCCCCN1C=Nc2cccc3nc4c(c1c23)Cn1c-4cc2c(c1=O)COC(=O)[C@@]2(CC)OC(=O)CC[C@@H](NC(=O)[C@@H](N)CC(C)C)C(=O)O` [Example 49-4, (9S)-9-ethyl-9-[(L)-leucyl-(D)-γ-glutamyloxy]-1-pentyl-1H,12H-pyrano[3″,4″:6′,7′]-indolizino[1′,2′:6,5]pyrido[4,3,2-de]quinazoline-10,13(9H,15H)-dione hydrochloride], the IC50 in data set [1] (setting [4]) turned out to be 2.1 nM; in data set [2] (setting [5]), 15 nM.

Regarding `C=C1C(n2ccc(NC(=O)CC[C@@H](NC(=O)[C@@H](N)Cc3ccc(-c4ccccc4)cc3)C(=O)O)nc2=O)O[C@H](CO)[C@H]1O` (stereo partly shown) [Example 16], the IC50 in data set [3] (drug exposure time, 168 hr (7 days), read-out: Cytotoxicity (IC50 in nM) CFU-GM) turned out to be 2.8 nM; in data set [1] (drug exposure time, 96 hr, read-out: Cytotoxicity (IC50 in nM) HCT116/S5), 0.23 nM; in data set [2] (drug exposure time, 96 hr, read-out: Cytotoxicity (IC50 in nM) HCT116), 1.7 nM.

On to `CCCCCN1C=Nc2c3c(nc4cccc1c24)-c1cc2c(c(=O)n1C3)COC(=O)[C@@]2(CC)OC(=O)C[C@@H](NC(=O)[C@@H](N)CC1CCCCC1)C(=O)O` [Example 49-11, (9S)-9-ethyl-9-[(L)-cyclohexylalanyl-(D)-β-aspartyloxy]-1-pentyl-1H,12H-pyrano[3″,4″:6′,7′]indolizino[1′,2′:6,5]pyrido[4,3,2-de]quinazoline-10,13(9H,15H)-dione hydrochloride], for which the IC50 in data set [3] (setting [6]) is 120 nM; in data set [1] (setting [4]) it was 13 nM; in data set [2] (setting [5]), > 50 nM.

For `C=C1C(n2ccc(NC(=O)CC[C@@H](NC(=O)[C@@H](N)Cc3ccc4ccccc4c3)C(=O)O)nc2=O)O[C@H](CO)[C@H]1O` (stereo partly drawn) [Example 17, (2R)-((2S)-Amino-3-naphthalen-2-ylpropionylamino)-4-[1-((4S)-hydroxy-(5R)-hydroxymethyl-3-methylenetetrahydrofuran-2-yl)-2-oxo-1,2-dihydropyrimidin-4-ylcarbamoyl]butyric acid], the IC50 in data set [3] is 1.1 nM; in data set [1], 0.098 nM; in data set [2], 0.99 nM.

Take `CC[C@@]1(OC(=O)CC[C@@H](NC(=O)[C@H](N)Cc2c[nH]c3ccccc23)C(=O)O)C(=O)OCc2c1cc1n(c2=O)Cc2cc3ccccc3nc2-1` [Example 31, 20-O—[(R)-tryptophyl-γ-(R)-glutamyl]-20(S)-camptothecin hydrochloride]: the figures for the IC50 in data set [3] and in data set [2] (setting [5]) were 18200 nM and 3 nM, respectively.

`CCc1c2c(nc3ccc(O)cc13)-c1cc3c(c(=O)n1C2)COC(=O)[C@@]3(CC)OC(=O)CC[C@@H](NC(=O)[C@@H](N)Cc1ccccc1)C(=O)O` [Example 39, 7-ethyl-10-hydroxy-20-O—[(S)-phenylalanyl-γ-(R)-glutamyl]-20(S)-camptothecin hydrochloride]: the IC50 in data set [3] was 20 nM; in data set [1] (setting [4]), 2.8 nM; in data set [2] (setting [5]) it was 23 nM.

As for `CCc1c2c(nc3ccc(O)cc13)-c1cc3c(c(=O)n1C2)COC(=O)[C@]3(O)CC` [SN 38, reference compound], the IC50 in data set [3] (setting [6]) was determined as 1.8 nM; in data set [1] (setting [4]), 2.2 nM; in data set [2] (setting [5]), 3.7 nM.

For `CCCCCN1C=Nc2cccc3nc4c(c1c23)Cn1c-4cc2c(c1=O)COC(=O)[C@@]2(CC)OC(=O)CC[C@@H](NC(=O)[C@@H](N)Cc1ccccc1)C(=O)O` [Example 49-3, (9S)-9-ethyl-9-[(L)-phenylalanyl-(D)-γ-glutamyloxy]-1-pentyl-1H,12H-pyrano[3″,4″:6′,7′]-indolizino[1′,2′:6,5]pyrido[4,3,2-de]quinazoline-10,13(9H,15H)-dione hydrochloride], the values for the IC50 in data set [3] (setting [6]), in data set [1] (setting [4]) and in data set [2] (setting [5]) were 250 nM, 2.9 nM and > 50 nM, respectively.

As to `CCCCCN1C=Nc2cccc3nc4c(c1c23)Cn1c-4cc2c(c1=O)COC(=O)[C@@]2(CC)OC(=O)CC[C@H](NC(=O)[C@@H](N)Cc1c[nH]c2ccccc12)C(=O)O` [Example 49-1, (9S)-9-ethyl-9-[(L)-tryptophyl-(L)-γ-glutamyloxy]-1-pentyl-1H,12H-pyrano[3″,4″:6′,7′]indolizino[1′,2′:6,5]pyrido[4,3,2-de]quinazoline-10,13(9H,15H)-dione hydrochloride], the IC50 was found to be 61 nM in data set [3] (setting [6]), 3.3 nM in data set [1] (setting [4]) and 33 nM in data set [2] (setting [5]).
